SMILES strings stand for the structures.

A word on the IC50: it is the concentration at which inhibition is half-maximal.

human LPA1 receptor, sequence (Q92633 whole entry, the tested form may be a part): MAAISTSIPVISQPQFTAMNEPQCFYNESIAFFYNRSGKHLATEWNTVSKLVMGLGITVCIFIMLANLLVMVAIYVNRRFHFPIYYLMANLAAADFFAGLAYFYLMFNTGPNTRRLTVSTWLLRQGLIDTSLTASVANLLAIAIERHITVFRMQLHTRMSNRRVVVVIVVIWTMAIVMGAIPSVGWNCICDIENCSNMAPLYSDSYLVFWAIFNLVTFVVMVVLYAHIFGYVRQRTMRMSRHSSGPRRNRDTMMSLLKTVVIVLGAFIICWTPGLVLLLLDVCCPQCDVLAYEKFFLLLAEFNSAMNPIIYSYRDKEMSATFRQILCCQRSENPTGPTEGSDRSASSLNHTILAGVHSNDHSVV

The assay addresses human LPA1 receptor (Homo sapiens (Human), UniProt Q92633). Briefly: Beta-arrestin recruitment assay to determine IC50 values for human LPAR1. Conditions: antagonist mode, Tango EDG2-bla U2OS cells, LPA 18:1 500 nM final. The class given is cell-based. The text has this: Beta-Arrestin Recruitment Assay to Determine IC50 Values for Human LPAR1
The Tango™ EDG2-bla U2OS cells are obtained from Invitrogen. These cells contain the human LPA1 receptor cDNA linked to a TEV protease site and a Gal4-VP16 transcription factor integrated into the Tango™ GPCR-bla U2OS parental cell line. This parental cell line stably expresses a beta-arrestin/TEV protease fusion protein and the beta-lactamase (bla) reporter gene under the control of a UAS response element. Upon LPA (agonist) binding, LPA1 receptor gets activated, leading to arrestin-protease recruitment and proteolytic release of the transcription factor: The transcription factor then regulates transcription of a beta-lactamase reporter construct, which is measured upon addition of the live-cell substrate.
10′000 Tango™ EDG2-bla U2OS cells are seeded in a 384-well black with clear bottom plate in 30 μl Freestyle 293 Expression Medium (Invitrogen) and incubated for 20 h at 37° C., 5% CO2. […] IC50 is the concentration of antagonist inhibiting 50% of the maximal response.
`Cc1ccc(NC(=O)C2(c3ccccc3C(C)C)CN(CC3(C(=O)O)CC3)C2)c(OC(F)F)n1` [Ex 11-27, 1-((3-((2-(difluoromethoxy)-6-methylpyridin-3-yl)carbamoyl)-3-(2-isopropylphenyl)azetidin-1-yl)methyl)cyclopropane-1-carboxylic acid] displayed an IC50 of 0.038 µM. In turn, `COC(=O)CCCN1CC(C(=O)Nc2ccc(C)nc2OC(F)F)(c2ccccc2C(C)C)C1` [Ex 11-28, methyl 4-(3-((2-(difluoromethoxy)-6-methylpyridin-3-yl)carbamoyl)-3-(2-isopropylphenyl)azetidin-1-yl)butanoate] had a half-maximal inhibitory concentration (IC50) of 0.012 µM.

On to `COC(=O)C(C)(C)CCN1CC(C(=O)Nc2ccc(C)nc2OC(F)F)(c2ccccc2C(C)C)C1` [Ex 11-30, methyl 4-(3-((2-(difluoromethoxy)-6-methylpyridin-3-yl)carbamoyl)-3-(2-isopropylphenyl)azetidin-1-yl)-2,2-dimethylbutanoate], for which the half-maximal inhibitory concentration (IC50) stood at 0.098 µM.

Regarding `CCOC(=O)CC(C)(C)CN1CC(C(=O)Nc2ccc(C)nc2OC(F)F)(c2ccccc2C(C)C)C1` [Ex 11-32, ethyl 4-(3-((2-(difluoromethoxy)-6-methylpyridin-3-yl)carbamoyl)-3-(2-isopropylphenyl)azetidin-1-yl)-3,3-dimethylbutanoate], the concentration for half-maximal inhibition (IC50) stood at 0.805 µM. As for `Cc1ccc(NC(=O)C2(c3ccccc3C(C)C)CN(CC(C)(C)CC(=O)O)C2)c(OC(F)F)n1` [Ex 11-33, 4-(3-((2-(difluoromethoxy)-6-methylpyridin-3-yl)carbamoyl)-3-(2-isopropylphenyl)azetidin-1-yl)-3,3-dimethylbutanoic acid], the figure is 0.008 µM. As for `CCOC(=O)c1cc(CN2CC(C(=O)Nc3ccc(C)nc3OC(F)F)(c3ccccc3C(C)C)C2)on1` [Ex 11-34, ethyl 5-((3-((2-(difluoromethoxy)-6-methylpyridin-3-yl)carbamoyl)-3-(2-isopropylphenyl)azetidin-1-yl)methyl)isoxazole-3-carboxylate], the figure is 0.079 µM; as for `Cc1ccc(NC(=O)C2(c3ccccc3C(C)C)CN(Cc3cc(C(=O)O)no3)C2)c(OC(F)F)n1` [Ex 11-35, 5-((3-((2-(difluoromethoxy)-6-methylpyridin-3-yl)carbamoyl)-3-(2-isopropylphenyl)azetidin-1-yl)methyl)isoxazole-3-carboxylic acid], 0.043 µM; as for `Cc1ccc(NC(=O)C2(c3ccccc3C(C)C)CN(Cc3ccno3)C2)c(OC(F)F)n1` [Ex 11-36, N-(2-(difluoromethoxy)-6-methylpyridin-3-yl)-3-(2-isopropylphenyl)-1-(isoxazol-5-ylmethyl)azetidine-3-carboxamide], 0.009 µM. Under `COC(=O)c1n[nH]cc1CN1CC(C(=O)Nc2ccc(C)nc2OC(F)F)(c2ccccc2C(C)C)C1` [Ex 11-37, methyl 4-((3-((2-(difluoromethoxy)-6-methylpyridin-3-yl)carbamoyl)-3-(2-isopropylphenyl)azetidin-1-yl)methyl)-1H-pyrazole-3-carboxylate] stands 0.006 µM.

Consider `Cc1ccc(NC(=O)C2(c3ccccc3C(C)C)CN(Cc3c[nH]nc3C(=O)O)C2)c(OC(F)F)n1` [Ex 11-38, 4-((3-((2-(difluoromethoxy)-6-methylpyridin-3-yl)carbamoyl)-3-(2-isopropylphenyl)azetidin-1-yl)methyl)-1H-pyrazole-3-carboxylic acid], for which the IC50 came to 0.27 µM. Under `CCOC(=O)c1c[nH]nc1CN1CC(C(=O)Nc2ccc(C)nc2OC(F)F)(c2ccccc2C(C)C)C1` [Ex 11-39, ethyl 3-((3-((2-(difluoromethoxy)-6-methylpyridin-3-yl)carbamoyl)-3-(2-isopropylphenyl)azetidin-1-yl)methyl)-1H-pyrazole-4-carboxylate] stands 0.01 µM; under `Cc1ccc(NC(=O)C2(c3ccccc3C(C)C)CN(Cc3n[nH]cc3C(=O)O)C2)c(OC(F)F)n1` [Ex 11-40, 3-((3-((2-(difluoromethoxy)-6-methylpyridin-3-yl)carbamoyl)-3-(2-isopropylphenyl)azetidin-1-yl)methyl)-1H-pyrazole-4-carboxylic acid], 0.27 µM; under `COC(=O)Cn1cccc1CN1CC(C(=O)Nc2ccc(C)nc2OC(F)F)(c2ccccc2C(C)C)C1` [Ex 11-41, methyl 2-(2-((3-((2-(difluoromethoxy)-6-methylpyridin-3-yl)carbamoyl)-3-(2-isopropylphenyl)azetidin-1-yl)methyl)-1H-pyrrol-1-yl)acetate], 0.067 µM. Under `Cc1ccc(NC(=O)C2(c3ccccc3C(C)C)CN(Cc3cccn3CC(=O)O)C2)c(OC(F)F)n1` [Ex 11-42, 2-(2-((3-((2-(difluoromethoxy)-6-methylpyridin-3-yl)carbamoyl)-3-(2-isopropylphenyl)azetidin-1-yl)methyl)-1H-pyrrol-1-yl)acetic acid] stands 0.043 µM; under `COC(=O)c1ccc(CN2CC(C(=O)Nc3ccc(C)nc3OC(F)F)(c3ccccc3C(C)C)C2)[nH]1` [Ex 11-43, methyl 5-((3-((2-(difluoromethoxy)-6-methylpyridin-3-yl)carbamoyl)-3-(2-isopropylphenyl)azetidin-1-yl)methyl)-1H-pyrrole-2-carboxylate], 0.31 µM.

For `Cc1ccc(NC(=O)C2(c3ccccc3C(C)C)CN(Cc3ccc(C(=O)O)[nH]3)C2)c(OC(F)F)n1` [Ex 11-44, 5-((3-((2-(difluoromethoxy)-6-methylpyridin-3-yl)carbamoyl)-3-(2-isopropylphenyl)azetidin-1-yl)methyl)-1H-pyrrole-2-carboxylic acid], the IC50 came to 0.005 µM. As for `COC(=O)c1cccc(CN2CC(C(=O)Nc3ccc(C)nc3OC(F)F)(c3ccccc3C(C)C)C2)n1` [Ex 11-45, methyl 6-((3-((2-(difluoromethoxy)-6-methylpyridin-3-yl)carbamoyl)-3-(2-isopropylphenyl)azetidin-1-yl)methyl)picolinate], the figure is 0.064 µM.

`Cc1ccc(NC(=O)C2(c3ccccc3C(C)C)CN(Cc3cccc(C(=O)O)n3)C2)c(OC(F)F)n1` [Ex 11-46, 6-((3-((2-(difluoromethoxy)-6-methylpyridin-3-yl)carbamoyl)-3-(2-isopropylphenyl)azetidin-1-yl)methyl)picolinic acid] registered a 50% inhibitory concentration (IC50) of 0.017 µM. As for `Cc1ccc(NC(=O)C2(c3ccccc3C(C)C)CN(Cc3ncco3)C2)c(OC(F)F)n1` [Ex 11-47, N-(2-(difluoromethoxy)-6-methylpyridin-3-yl)-3-(2-isopropylphenyl)-1-(oxazol-2-ylmethyl)azetidine-3-carboxamide], the figure is 0.041 µM; as for `COC(=O)Cn1cc(CN2CC(C(=O)Nc3ccc(C)nc3OC(F)F)(c3ccccc3C(C)C)C2)nn1` [Ex 11-48, methyl 2-(4-((3-((2-(difluoromethoxy)-6-methylpyridin-3-yl)carbamoyl)-3-(2-isopropylphenyl)azetidin-1-yl)methyl)-1H-1,2,3-triazol-1-yl)acetate], 0.304 µM. Under `Cc1ccc(NC(=O)C2(c3ccccc3C(C)C)CN(Cc3cn(CC(=O)O)nn3)C2)c(OC(F)F)n1` [Ex 11-49, 2-(4-((3-((2-(difluoromethoxy)-6-methylpyridin-3-yl)carbamoyl)-3-(2-isopropylphenyl)azetidin-1-yl)methyl)-1H-1,2,3-triazol-1-yl)acetic acid] stands 0.547 µM; under `COC(=O)c1cc(CN2CC(C(=O)Nc3ccc(C)nc3OC(F)F)(c3ccccc3C(C)C)C2)ccn1` [Ex 11-50, methyl 4-((3-((2-(difluoromethoxy)-6-methylpyridin-3-yl)carbamoyl)-3-(2-isopropylphenyl)azetidin-1-yl)methyl)picolinate], 0.047 µM. As for `Cc1ccc(NC(=O)C2(c3ccccc3C(C)C)CN(Cc3ccnc(C(=O)O)c3)C2)c(OC(F)F)n1` [Ex 11-51, 4-((3-((2-(difluoromethoxy)-6-methylpyridin-3-yl)carbamoyl)-3-(2-isopropylphenyl)azetidin-1-yl)methyl)picolinic acid], the figure is 0.041 µM; as for `COC(=O)c1ccc(CN2CC(C(=O)Nc3ccc(C)nc3OC(F)F)(c3ccccc3C(C)C)C2)cn1` [Ex 11-52, methyl 5-((3-((2-(difluoromethoxy)-6-methylpyridin-3-yl)carbamoyl)-3-(2-isopropylphenyl)azetidin-1-yl)methyl)picolinate], 0.079 µM; as for `Cc1ccc(NC(=O)C2(c3ccccc3C(C)C)CN(Cc3ccc(C(=O)O)nc3)C2)c(OC(F)F)n1` [Ex 11-53, 5-((3-((2-(difluoromethoxy)-6-methylpyridin-3-yl)carbamoyl)-3-(2-isopropylphenyl)azetidin-1-yl)methyl)picolinic acid], 0.115 µM.

For the compound `COC(=O)c1cnc(CN2CC(C(=O)Nc3ccc(C)nc3OC(F)F)(c3ccccc3C(C)C)C2)cn1` [Ex 11-54, methyl 5-((3-((2-(difluoromethoxy)-6-methylpyridin-3-yl)carbamoyl)-3-(2-isopropylphenyl)azetidin-1-yl)methyl)pyrazine-2-carboxylate], the concentration for half-maximal inhibition (IC50) came out at 0.095 µM. As for `Cc1ccc(NC(=O)C2(c3ccccc3C(C)C)CN(Cc3cnc(C(=O)O)cn3)C2)c(OC(F)F)n1` [Ex 11-55, 5-((3-((2-(difluoromethoxy)-6-methylpyridin-3-yl)-carbamoyl)3-(2-isopropylphenyl)azetidin-1-yl)methyl)pyrazine-2-carboxylic acid], the figure is 0.142 µM; as for `COC(=O)c1ccc(CN2CC(C(=O)Nc3ccc(C)nc3OC(F)F)(c3ccccc3C(C)C)C2)o1` [Ex 11-56, methyl 5-((3-((2-(difluoromethoxy)-6-methylpyridin-3-yl)carbamoyl)-3-(2-isopropylphenyl)azetidin-1-yl)methyl)furan-2-carboxylate], 0.064 µM.

These data come from patent publication US12344597B2, “Alkoxy-substituted pyridinyl derivatives as LPA1 receptor antagonists and their use in the treatment of fibrosis” (IDORSIA PHARMACEUTICALS LTD, priority 2018, dated 2025).
